Activity calls are given as the source filed them. The rule behind the calls is not given here.
How the values were obtained:
Rattus norvegicus [1] = species: Rattus norvegicus; experiment: Ratio of IC50 for rat cortical membrane GABA receptor in absence of GABA to IC50 for rat cortical membrane GABA receptor in presence of GABA
[2] = Displacement of [3H]ethynylpropylbicycloorthobenzoate from GABAA receptor from rat cortical membrane by scintillation counting in presence of 1 uM GABA
[3] = Displacement of [3H]ethynylpropylbicycloorthobenzoate from GABA receptor from rat cortical membrane by scintillation counting in absence of GABA
Rattus norvegicus [4] = species: Rattus norvegicus; experiment: Displacement of [3H]ethynylpropylbicycloorthobenzoate from GABA receptor from rat cortical membrane at 100 uM by scintillation counting in absence of GABA
Rattus norvegicus [5] = species: Rattus norvegicus; experiment: Displacement of [3H]ethynylpropylbicycloorthobenzoate from GABA receptor from rat cortical membrane at 100 uM by scintillation counting in presence of 1 uM GABA

`CC[C@H](c1ccccc1)n1cncc1C(=O)OC` showed a Ratio IC50 (Rattus norvegicus [1]) of 15.8, an IC50 [2] of 7.15 µM and an IC50 [3] of 111 µM.

`COC(=O)c1cncn1[C@H](C)c1ccc(CO)cc1` showed an IC50 [2] of 169 µM and an IC50 [3] greater than 300 µM.

For `CC(=O)[C@H]1CC[C@H]2[C@@H]3CC[C@H]4C[C@H](O)CC[C@]4(C)[C@H]3CC[C@]12C` [BREXANOLONE], the Ratio IC50 (Rattus norvegicus [1]) was 50, the IC50 [2] was 0.14 µM and the IC50 [3] was 6.2 µM.

Compound `CCCOC(=O)c1cncn1[C@H](C)c1ccccc1` has a Ratio IC50 (Rattus norvegicus [1]) of 14.1, an IC50 [2] of 1.29 µM and an IC50 [3] of 15.4 µM.

Work on `COC(=O)c1cncn1[C@H](C)c1ccc(C)cc1` yielded an IC50 [2] of 15.5 µM and an IC50 [3] greater than 300 µM.

Compound `CC(C)OC(=O)c1cncn1[C@H](C)c1ccccc1` has a Ratio IC50 (Rattus norvegicus [1]) of 14.6, an IC50 [2] of 1.47 µM and an IC50 [3] of 20.7 µM.

For `COC(=O)c1cncn1[C@@H](C)c1ccccc1`, the IC50 [2] was 202 µM and the IC50 [3] was greater than 300 µM.

Compound `C[C@H](c1ccccc1)n1cncc1C(=O)OCCF` has a Ratio IC50 (Rattus norvegicus [1]) of 16.6, an IC50 [2] of 4.78 µM and an IC50 [3] of 80 µM.

Work on `CCOC(=O)c1cncn1[C@H](C)c1ccc(I)cc1` yielded an IC50 [2] of 33 µM and an IC50 [3] greater than 300 µM.

`CCOC(=O)c1cncn1[C@H](C)c1ccccc1` [ETOMIDATE] gave a Ratio IC50 (Rattus norvegicus [1]) of 19.3, an IC50 [2] of 2.05 µM and an IC50 [3] of 38 µM.

With `COC(=O)c1cncn1Cc1ccccc1` the IC50 [2] was 157 µM and the IC50 [3] was greater than 300 µM.

In the case of `CC(C)(C(=O)c1cccnc1)c1cccnc1`, the Activity (Rattus norvegicus [4]) is reported as “inactive” and the Activity (Rattus norvegicus [5]) is reported as “inactive”.

In the case of `CC(C)(c1cccnc1)C(O)c1cccnc1` (stereo not given), the Activity (Rattus norvegicus [4]) is reported as “inactive” and the Activity (Rattus norvegicus [5]) is reported as “inactive”.

Compound `COC(=O)c1cncn1[C@@H]1CCc2ccccc21` has an IC50 [2] of 122 µM and an IC50 [3] greater than 300 µM.

`CC(=O)[C@H]1CC[C@H]2[C@@H]3CC[C@H]4C[C@H](O)CC[C@]4(C)[C@H]3C(=O)C[C@]12C` [ALFAXALONE] gave a Ratio IC50 (Rattus norvegicus [1]) of 102, an IC50 [2] of 0.9 µM and an IC50 [3] of 86 µM.

For `C[C@H](c1ccccc1)n1cncc1C(N)=O`, the Activity (Rattus norvegicus [4]) was “inactive” and the Activity (Rattus norvegicus [5]) was “inactive”.

Compound `COC(=O)c1cncn1[C@H](C)c1ccc(Br)cc1` has a Ratio IC50 (Rattus norvegicus [1]) of 15.6, an IC50 [2] of 7.62 µM and an IC50 [3] of 109 µM.

Work on `COC(=O)c1cncn1[C@H](C)c1cccc(I)c1` yielded an IC50 [2] of 53 µM and an IC50 [3] greater than 300 µM.

In the case of `C[C@H](c1ccccc1)n1cncc1C(=O)O`, the Activity (Rattus norvegicus [4]) is reported as “inactive” and the Activity (Rattus norvegicus [5]) is reported as “inactive”.

`COC(=O)c1cncn1[C@H](C)c1ccc(I)cc1` [IODOMETOMIDATE I-123, R-] gave an IC50 [2] of 37 µM and an IC50 [3] greater than 300 µM.

In the case of `COC(=O)c1cncn1[C@H](C)c1cccnc1`, the Activity (Rattus norvegicus [4]) is reported as “inactive” and the Activity (Rattus norvegicus [5]) is reported as “inactive”.

`CC(=O)c1cncn1[C@H](C)c1ccccc1` gave an IC50 [2] of 155 µM and an IC50 [3] greater than 300 µM.

Work on `COC(=O)c1cncn1[C@H](C)c1ccccc1` yielded a Ratio IC50 (Rattus norvegicus [1]) of 19.6, an IC50 [2] of 8.97 µM and an IC50 [3] of 163 µM.
